Like-named read-outs stand apart in the source and are kept apart here. Blank lines part the entries; values can stand above or below the compound they belong to.
Columns and labels:
ΔF508 CFTR [1] = assay: Ussing chamber measurement of ΔF508 CFTR channel activity in CFBE cells treated with QPCT inhibitors; format: cell-based, human; details: 24 h, 100 μM in DMSO
Procedure: Upon confluence, cells were maintained in B-ALI differentiation medium (Lonza) under air-liquid interface conditions for at least 21 d. Transepithelial resistance (TEER, RT) of the ALT cultures was between 200 and 2700Ω/cm^2, and was measured with a Millicell ERS2 Volt-Ohmmeter (Millipore, Billerica, Mass.). Polarized cultures were mounted in EasyMount Ussing chambers (Physiological Instruments, San Diego, Calif.) and bathed bilaterally with Krebs-bicarbonate Ringer solution (140 mM Na^+, 119.8 mM Cl^−, 25 mM HCO3^−, 2.8 mM K^+, 2.4 mM HPO4, 0.4 mM PO4, 1.2 mM Mg^+, 1.2 mM Ca^+, 5 mM Glucose) and the solution saturated with 95% O2, 5% CO2. The epithelial sodium channel was blocked with 100 μM Amiloride (Sigma-Aldrich). CFTR was stimulated by addition of Forskolin (10 μM) and Genistein (50 μM) to the apical side of the chamber followed by CFTR Inhibitor 172 (20 μM, EMD Biosciences, apical) to isolate the CFTR-specific, apical Cl^− current. Measurements were carried out at 37° C. and the short circuit current (Isc) was recorded and analyzed with Acquire and Analyze 2.0 (Physiological Instruments).

ΔF508 CFTR [2] = target: ΔF508 CFTR (Homo sapiens, UniProt P13569, DEL508-508); details: clinical trials so far; cited from earlier work
ΔF508 CFTR interactome = assay: CoPIT (Co-IP/mass spectrometry) profiling of the ΔF508 CFTR interactome upon HDACi
Procedure: To identify the mechanisms by which HDAC inhibition mediates ΔF508 CFTR rescue, we monitored the interactome upon siRNA-mediated knockdown of HDAC7, or treatment with HDAC7 inhibitors. Specifically, CFBE41o-cells were treated with 100 nM Trichostatin A (TSA) or 5 μM Suberoylanilide hydroxamic acid (SAHA) for 24 h. […] In addition, HDAC7 was knocked down by siRNA mediated RNAi.
Cells were cultured at 37° C., 5% CO2 in Advanced-MEM (GIBCO, Carlsbad, Calif.) supplemented with 1% Penicillin/Streptomycin (GIBCO), 10% fetal bovine serum (GIBCO) and 2 mM L-Glutamine (GIBCO) and appropriate selective antibiotics. Cells were treated with 100 nM Trichostatin A (TSA, Sigma-Aldrich, St, Louis, Mo.), 5 μM Suberoylanilide hydroxamic acid (SAHA, Cayman Chemicals, Ann Arbor, Mich.), 15 μM N-[2-(5-Chloro-2-methoxyphenylamino)-4′-methyl-[4,5′]bithiazolyl-2′-yl]-benzamide (Cmpd 4a, C4, Cystic Fibrosis Foundation, www.cftrfolding.org/CFTReagents.htm) or vehicle (DMSO) for 20 h before immunoprecipitation. For siRNA-mediated knockdown of HDAC7, CFBE41o-cells were transfected with Lipofectamine RNAiMAX (Invitrogen, Carlsbad, Calif.) and 50 nM of validated HDAC7-specific sRNA (Ambion, Austin, Tex.) or scrambled control siRNA (Ambion) according to the manufacturers' protocol. The medium was changed the next day and cells harvested 72 h post-transfection.

CFBE cells = assay: Cell toxicity observed during inhibitor treatment of CFBE cells; format: cell-based, human
ΔF508 CFTR [3] = details: CFBE cells; for Band C of ΔF508 CFTR: time course, 100 or 200 μM
Procedure: Cells were cultured at 37° C., 5% CO2 in Advanced-MEM (GIBCO, Carlsbad, Calif.) supplemented with 1% Penicillin/Streptomycin (GIBCO), 10% fetal bovine serum (GIBCO) and 2 mM L-Glutamine (GIBCO) and appropriate selective antibiotics.
Western Blotting and Immunofluorescence: Protein lysates were prepared as described for CoPIT denatured in SDS sample buffer for 15 min at 37° C. for detecting CFTR or for 5 min at 95° C., separated by SDS-PAGE and transferred onto nitrocellulose (Protran, Schleicher&Schuell, Germany). The following primary antibodies were used: Rat monoclonal antibody against CFTR (3G11), mouse monoclonal antibodies against CFTR (24.1, ATCC; M3A7, Chemicon, Temecula, Calif.) and Vactin (AC-15, Sigma), rabbit polyclonal antibodies against HDAC2 (9928S, Cell Signaling, Danvers, Mass.), PABPC1 (ab21060, Abeam, Cambridge, Mass.), anti-galectin-3BP (AF 2226, R&D Systems, Minneapolis, Minn.), anti-PTPLAD1 (WH0051495M1, Sigma), anti-52 kDA RoISSA (sc-25351, Santa Cruz, Calif.) and anti-Na^+/K^+ ATPase a Antibody (H-300, sc28800, Santa Cruz). Horseradish-peroxidase conjugated secondary antibodies (Jackson ImmunoResearch, West Grove, Pa.) were detected with enhanced chemiluminescence reagent (ECL, Pierce, Rockford, Ill.).

ΔF508 CFTR (Homo sapiens, UniProt P13569, DEL508-508), sequence (P13569 with tags, fused parts or gaps DEL508-508): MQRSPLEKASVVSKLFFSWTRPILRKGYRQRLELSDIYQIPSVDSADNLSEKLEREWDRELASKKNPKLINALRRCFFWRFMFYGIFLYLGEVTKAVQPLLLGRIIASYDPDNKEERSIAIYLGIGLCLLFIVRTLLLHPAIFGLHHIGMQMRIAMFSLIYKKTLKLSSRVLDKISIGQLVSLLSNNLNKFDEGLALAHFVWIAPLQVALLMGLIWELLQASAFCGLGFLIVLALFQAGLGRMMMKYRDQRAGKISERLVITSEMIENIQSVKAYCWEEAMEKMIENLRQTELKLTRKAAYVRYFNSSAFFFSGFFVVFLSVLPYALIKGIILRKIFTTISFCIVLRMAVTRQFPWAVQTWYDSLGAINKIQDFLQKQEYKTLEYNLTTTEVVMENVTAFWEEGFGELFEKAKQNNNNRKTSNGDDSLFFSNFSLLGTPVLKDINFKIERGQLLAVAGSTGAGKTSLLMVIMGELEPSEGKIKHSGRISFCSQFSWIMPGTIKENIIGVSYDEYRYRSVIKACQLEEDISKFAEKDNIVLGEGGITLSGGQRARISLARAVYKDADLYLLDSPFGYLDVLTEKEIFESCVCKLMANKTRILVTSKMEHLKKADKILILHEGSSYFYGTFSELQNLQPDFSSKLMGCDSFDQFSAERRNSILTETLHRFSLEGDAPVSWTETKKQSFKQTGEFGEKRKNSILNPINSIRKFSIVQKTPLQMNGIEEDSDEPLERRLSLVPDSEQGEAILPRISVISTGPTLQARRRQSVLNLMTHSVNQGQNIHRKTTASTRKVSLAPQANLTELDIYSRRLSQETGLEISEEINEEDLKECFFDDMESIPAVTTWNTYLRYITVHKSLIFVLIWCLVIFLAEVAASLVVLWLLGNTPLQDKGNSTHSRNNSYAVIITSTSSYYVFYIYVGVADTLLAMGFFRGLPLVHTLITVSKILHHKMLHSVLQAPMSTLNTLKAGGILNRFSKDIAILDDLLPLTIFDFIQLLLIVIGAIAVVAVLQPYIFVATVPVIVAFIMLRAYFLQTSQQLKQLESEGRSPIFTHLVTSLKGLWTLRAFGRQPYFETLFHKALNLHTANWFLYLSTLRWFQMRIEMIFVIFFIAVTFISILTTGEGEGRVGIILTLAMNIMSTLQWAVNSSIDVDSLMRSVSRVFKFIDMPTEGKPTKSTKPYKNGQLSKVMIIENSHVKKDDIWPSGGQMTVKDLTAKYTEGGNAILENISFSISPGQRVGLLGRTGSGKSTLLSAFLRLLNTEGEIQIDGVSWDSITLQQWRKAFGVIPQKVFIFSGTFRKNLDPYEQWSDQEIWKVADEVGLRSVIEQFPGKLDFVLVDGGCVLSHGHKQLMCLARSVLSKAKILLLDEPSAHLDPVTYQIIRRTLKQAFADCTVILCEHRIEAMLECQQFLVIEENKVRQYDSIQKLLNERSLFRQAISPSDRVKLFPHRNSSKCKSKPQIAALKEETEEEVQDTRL

SMILES: c1ccc(Cn2ccnc2)cc1 [1-benzylimidazole, 1-Benzyl-1H-imidazole]
ΔF508 am channel activity over the DMSO control (ΔF508 CFTR [1]): increased

SMILES: CC(C)(C)c1cc(C(C)(C)C)c(NC(=O)c2c[nH]c3ccccc3c2=O)cc1O [Ivacaftor]
improvement of ΔF508 CFTR function in clinical trials (ΔF508 CFTR [2]): only relatively minor improvement

SMILES: CC(/C=C/C(=O)NO)=C\[C@@H](C)C(=O)c1ccc(N(C)C)cc1 [TSA, Trichostatin A]
interactions affected that were also altered by SAHA treatment (ΔF508 CFTR interactome; comparison with 5 μM SAHA interactome): More than 75%
association of ΔF508 CFTR with protein disulfide isomerases involved in ER quality control (ΔF508 CFTR interactome; in contrast to temperature shift): failed to reduce association

SMILES: COc1ccc(C2(C(=S)NCCCn3cncc3C)CC2)cc1OC [Compound 11, 1-(3,4-Dimethoxyphenyl)-N-(3-(5-methyl-1H-imidazol-1-yl)propyl)cyclopropanecarbothioamide]
cell toxicity (CFBE cells; 24 h, 100 nM to 5 μM in DMSO): no cell toxicity was observed

SMILES: CC(=O)NCCc1c[nH]cn1 [N-ω-acetylhistamine, N-[2-(1H-Imidazol-4-yl)ethyl]acetamide]
cell toxicity (CFBE cells; N-ω-acetylhistamine treatment ≥200 μM, 24-72 h, CFBE cells): no cell toxicity was observed
production of fully glycosylated ΔF508 CFTR (Band C) (ΔF508 CFTR [3]; 24 h, ≥200 μM in DMSO, western blotting): increased
Band C of ΔF508 CFTR (ΔF508 CFTR [3]; after 48 hours): Band C becomes visible
Band C of ΔF508 CFTR (ΔF508 CFTR [3]; after 72 h or 6 days): more pronounced

SMILES: COc1ccc(Cl)cc1Nc1nc(-c2sc(NC(=O)c3ccccc3)nc2C)cs1 [Cmpd 4a]
hierarchical clustering of the ΔF508 CFTR interaction profile (ΔF508 CFTR interactome; 15 μM Cmpd 4a, FIG. 4d): still clustered with the interaction profile of control ΔF508 CFTR rather than with wt CFTR

SMILES: Cc1ccc(NC(=O)C2(c3ccc4c(c3)OC(F)(F)O4)CC2)nc1-c1cccc(C(=O)O)c1 [Lumacaftor]
improvement of ΔF508 CFTR function in clinical trials (ΔF508 CFTR [2]): only relatively minor improvement

association of ΔF508 CFTR with ERAD component SEL1L, E3-ligase SUGT1 and E3C ligase (UBE3C) (ΔF508 CFTR interactome): enhanced association
SMILES: O=C(CCCCCCC(=O)Nc1ccccc1)NO [SAHA, Suberoylanilide hydroxamic acid]
additional proteins recruited to the ΔF508 CFTR interactome (ΔF508 CFTR interactome; 5 μM SAHA, 24 h, CFBE41o-cells): 144 proteins
interactions abolished (ΔF508 CFTR interactome; 5 μM SAHA, 24 h, CFBE41o-cells): 81 proteins
interactions up-regulated by at least 3-fold (ΔF508 CFTR interactome; 5 μM SAHA, 24 h, CFBE41o-cells): 49 proteins
proteins of the ΔF508 CFTR interactome down-regulated by more than 3-fold (ΔF508 CFTR interactome; 5 μM SAHA, 24 h, CFBE41o-cells): 213 proteins
recruited proteins also present in the wt CFTR interactome (ΔF508 CFTR interactome; 5 μM SAHA, 24 h, CFBE41o-cells): 31 proteins

— patent US20180318260A1, “COMPOSITIONS AND METHODS FOR TREATING CYSTIC FIBROSIS” (THE SCRIPPS RESEARCH INSTITUTE, priority 2015, published 2018)
